{"source": "patent US8470352B2", "about": "“Magnesium compositions and uses thereof for metabolic disorders” (Magceutics, Inc., priority 2007, dated 2013)", "key": {"[1]": {"test": "Magnesium absorption rate in rats (urine and feces magnesium by ICP-AES, linear regression)", "conditions": "Examples 5 and 6, gluconate in skim milk or 5 weight percent lactose water, chloride and threonate in water; for magnesium absorption rate at higher dosage: high magnesium dosage", "experimental": "Fifty 3-month old, male Sprague Dawley (SD) rats were divided into five groups of ten rats. Rats of this age and older are considered adult. Each of the rats was placed in a separate metabolic cage equipped with urine- and feces-collecting wells. All of the rats were maintained in a temperature-controlled room (22° C. to 25° C.) with a dark period from 08:00 pm to 08:00 am daily. From day 1 through day 3, each rat was fed daily 15 g of magnesium-free food and de-ionized water. […] The medium was skim milk for Composition 1 and Group 1, milk prepared from powdered milk, by diluting the powdered milk with water to obtain a composition like that of skim milk, for Composition 2 and Group 2, 1% milk cream in water for Composition 3 and Group 3, water comprising 5 weight percent lactose for Composition 4 and Group 4, and water for the Control Composition and Control Group. […] From day 11 through day 12, each rat was fed daily 15 g of magnesium-free food and de-ionized water.\nFrom day 4 through day 10, urine from each rat was collected daily. The collected urine from each rat was then pooled together and the total volume of the pooled urine from each rat was recorded. The pooled urine from each rat, in an amount of […], was analyzed for magnesium content using an inductively coupled plasma-atomic emission spectrometer (ICP-AES). From day 5 to day 11, feces from each rat were collected daily. The collected feces from each rat were pooled together and the pooled feces were weighed and homogenized. The pooled feces from each rat, in an amount of 0.5 g, were analyzed for magnesium content using an ICP-AES.\nA formula was used to calculate a magnesium absorption rate for each rat. The formula used was Y=AX−B, wherein X was the average total daily magnesium intake, Y was the average net daily amount of magnesium absorbed, as calculated by X minus the average daily amount of magnesium excreted from feces, B was the average daily amount of magnesium excreted from feces when the magnesium intake was zero, and the slope A represented the magnesium absorption rate. […]"}, "[2]": {"system": "rats (young, aging)", "test": "Novel object recognition test in rats", "type": "in vivo, Sprague-Dawley rats", "experimental": "In this example, the effect of magnesium supplementation on recognition memory was tested. Three groups of rats were used in these experiments: 1) young rats (three months old); aging rats (12-14 months old), and; 3) magnesium-treated aging rats (12-14 months old, diet supplemented with 6 mg/kg MgCl2 from 8 months of age). We used experimentally naive, female, Sprague-Dawley young […], aging (12-14 month old) and […] rats (Charles River) at the beginning of the behavior experiments. They were housed two per cage with continuous access to food and water under a 12:12 light-dark cycle, with light onset at 8:00 a.m. […] All experiments involving animals were approved by the Massachusetts Institute of Technology's and Tsinghua University Committees on Animal Care.\nThe three groups of rats were tested for recognition memory using an object recognition test with a single exposure to the object during training. The task is based on the natural tendency of rodents to explore new objects and tests the animals' memory capacity for distinguishing novel versus familiar objects.\nBriefly, the rats were first individually habituated to the personnel and then to open-field arena during 2 weeks. […] The retention intervals were 10 min and 24 hours. Objects were cleaned thoroughly between trials with 20% ethanol solution to ensure the absence of olfactory cues. The particular objects for a given trial were randomly determined, but each object was used for only one trial per rat. Memory of the familiar object is associated with increased exploration of the new object and an exploration index (% correct) is calculated as new object inspection time/30.\nIn this example, the effect of magnesium supplementation on memory consolidation was studied. […]\nBriefly, the rats were first individually habituated to the personnel and then to open-field arena during 2 weeks. […] The particular objects for a given trial were randomly determined, but each object was used for only one trial per rat. […]"}, "[3]": {"system": "rats (young, aging, aged)", "conditions": "p<0.05", "experimental": "Twenty 2-month old, male Sprague Dawley (SD) rats were housed in a temperature-controlled room (22° C. to 25° C.) with a dark period from 08:00 pm to 08:00 am daily. […] Over 7 days before the training and trial period began, each rat was handled and habituated to the maze and to Kellogg's Froot Loop cereal.\nEach rat underwent a test of one trial, followed by an interval of 10-minutes, followed by another trial, and so on, for a total of 6 trials in one day. In each trial, each rat went through a sample run in the maze, followed by an interval of 15 seconds, followed by a choice run in the maze. […]\nOn the first day (designated day 0) of the feeding of the two groups, as just described, each rat underwent a preliminary test of one trial, followed by an interval of 10 minutes, followed by another trial, and so on, for a total of 4 trials in one day. […] In this preliminary test, the choice accuracy level, or ratio of correct choices made, co, to the number of number of trials in the test, no, was determined for each rat. […]\nThree groups of animals (young, aging, and magnesium-treated aging rats) were used. […] Spatial working memory was assessed using a T-maze non-matching-to-place task. […] Spatial working memory was first assessed on an elevated T-maze. […]"}, "[4]": {"system": "mice genetically altered to present symptoms of Alzheimer's disease (AD)", "test": "Modified Morris water maze test in AD mice", "type": "in vivo", "conditions": "AD mice aged 13 months; FIG. 16 panels A and B", "experimental": "Another group, the control group, of 10 mice that were genetically altered to present symptoms of AD were fed a Control Diet, a diet of normal solid food and water, for 30 days.\nThe pool used was a pool of water in a circular metal tank (150 cm in diameter and 50 cm in depth) having a water height of 30 cm and a water temperature that was maintained at ˜22° C. The pool was placed in a moderately lit area and surrounded by a black curtain. An acrylic platform (15 cm in diameter) was placed 2 cm below the surface of the water in the middle of one quadrant of the pool, equidistant from the center and the edge of the pool. Outside the pool, a cue was placed so as to be visible to a mouse in the maze, allowing a mouse to use it as a landmark for spatial orientation. The cue remained unchanged throughout the test period.\nOn the first day of the training and testing period, the water in the pool was transparent, such that the platform was visible. Each mouse was trained to swim towards the platform and to stand on the platform so as not to be submerged in the pool. […] The amount of time the mouse took to find the platform, referred to as “escape latency,” was recorded for each trial.\nOn the second day of the training and testing period, a small quantity of milk was added to the water in the pool, such that the pool was opaque and the platform was no longer visible. […]"}, "[5]": {"system": "young (9-month old) and aged (25-month old) rats", "conditions": "food containing 2% magnesium oxide for 8 days; gain transient; cited from earlier work"}, "[6]": {"system": "diabetic patients", "conditions": "nearly 1 g of magnesium daily for 1 month; cited from earlier work"}, "[7]": {"conditions": "in vivo; cited from earlier work"}}}
{"molecule": "magnesium gluconate", "values": [{"measurement": "magnesium absorption rate at higher dosage", "setting": "[1]", "value": "suitably close to those associated with the lower dosage compositions"}]}
{"molecule": "[Cl-].[Cl-].[Mg+2]", "note": "[magnesium chloride]", "values": [{"measurement": "magnesium absorption rate at higher dosage", "setting": "[1]", "value": "less desirable"}, {"measurement": "magnesium absorption rate at relatively low dosage", "setting": "[1]; low magnesium dosage", "value": "suitable, but lower"}, {"measurement": "novel object exploration preference, 10 minute retention interval", "setting": "[2]; aging rats (12-14 months old), diet supplemented with 6 mg/kg MgCl2 from 8 months of age, single training, FIG. 8, P<0.0001", "value": "preferentially explored the novel object to the same extent as young rats"}, {"measurement": "novel object discrimination after 24 hours", "setting": "[2]; aging rats, 6 mg/kg MgCl2, single training", "value": "lose there ability to distinguish novel versus familiar objects"}, {"measurement": "preference for the novel object, 24-hour retention interval after spaced training", "setting": "[2]; aging rats, 6 mg/kg MgCl2, two training sessions, FIG. 9", "value": "retained a high level of preference"}, {"measurement": "learning in T-maze non-matching-to-place task, 15 sec delay", "setting": "[3]; 6 mg/kg MgCl2, FIG. 10 left panel", "value": "performed significantly better from their first trials"}, {"measurement": "spatial working memory at 2 and 5 min delays", "setting": "[3]; 6 mg/kg MgCl2, FIG. 10 right panel", "value": "significantly enhanced the performance of the aging rats"}]}
{"molecule": "CC12CC3CC(C)(C1)CC(N)(C3)C2", "note": "[memantine]", "values": [{"measurement": "reduction of the effects of AD on learning capacity, comparison of anti-AD drugs", "setting": "[4]", "value": "better at reducing the effects of AD on learning capacity than aricept"}]}
{"molecule": "[O]=[Mg]", "note": "[magnesium oxide]", "values": [{"measurement": "cognitive function", "setting": "[5]", "value": "some sign of improvement"}, {"measurement": "metabolic control", "setting": "[6]", "value": "only minor improvement"}, {"measurement": "magnesium bioavailability, or absorption rate in the human body", "setting": "[7]", "value": "very low"}]}
